Assay results published in paper PMC4707132 (Journal of medicinal chemistry, 2015).

Experiments:
Mcl-1 [1] = molecular target: T1, Mcl-1 (Homo sapiens, UniProt Q07820); assay: fluorescence polarization competition assay; type: binding
Mcl-1 [2] = molecular target: T1, Mcl-1; assay: surface plasmon resonance; type: binding
Mcl-1 [3] = molecular target: T1, Mcl-1; assay: bio-layer interferometry; type: binding; settings: label-free BLI
Mcl-1 [4] = molecular target: T1, Mcl-1; assay: HSQC chemical shift mapping; type: binding
in vitro cellular assay = type: cell-based

T1 sequence (Q07820 whole entry): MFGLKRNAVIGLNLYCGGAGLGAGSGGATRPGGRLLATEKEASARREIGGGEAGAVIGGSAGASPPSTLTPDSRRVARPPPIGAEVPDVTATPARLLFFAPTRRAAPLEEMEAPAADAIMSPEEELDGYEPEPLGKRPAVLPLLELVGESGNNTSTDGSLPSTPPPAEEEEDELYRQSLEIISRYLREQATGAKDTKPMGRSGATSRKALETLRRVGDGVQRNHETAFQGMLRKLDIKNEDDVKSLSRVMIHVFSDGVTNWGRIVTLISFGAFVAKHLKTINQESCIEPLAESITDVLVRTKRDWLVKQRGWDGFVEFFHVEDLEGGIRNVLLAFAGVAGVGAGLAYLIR

| Structure (SMILES) | direct binding to Mcl-1 (Mcl-1 [3]) | potency relative to M0 (Mcl-1 [1]) | also measured |
| --- | --- | --- | --- |
| COc1cc(/C=C/C(=O)c2ccc(OC)c(OC)c2OC)cc(Cl)c1O [Compound D1] | – | – | potency of Mcl-1 inhibition relative to M0 (Mcl-1 [1]): about 7 fold |
| COc1cc(O)c(C(=O)/C=C/c2ccc(O)c(OC)c2)c(OC)c1 [Compound M0, 2’,4-dihydroxy-3,4’,6’-trimethoxychalcone] | confirmed the activity | – | SPR response (Mcl-1 [2]): did not exhibit super-stoichiometric behavior; HSQC spectrum (Mcl-1 [4]): small number of distinct chemical shift differences |
| COc1ccc(C(=O)/C=C/c2cc(Cl)c(O)c(OC)c2)cc1 [Compound D4] | – | potency exceeding that of M0 | – |
| COc1ccc(C(=O)/C=C/c2cc(F)c(O)c(Cl)c2)c(OC)c1OC [Compound D2] | – | – | biological effect in cells (in vitro cellular assay): does not exert the desired biological effect; potency of Mcl-1 inhibition relative to M0 (Mcl-1 [1]): about 7 fold |
| COc1ccc(C(=O)/C=C/c2ccc(O)c(F)c2)c(OC)c1OC [Compound D5] | – | very similar inhibition constant as M0 | activity relative to D1 (Mcl-1 [1]): reduced activity |
| COc1cc(C(=O)/C=C/c2ccc(O)cc2)c(O)c(OC)c1OC [Compound D7] | – | less potent than M0 | – |
| COc1cc(C(=O)/C=C/c2ccc(C(F)(F)F)cc2)c(O)c(OC)c1OC [Compound D13] | – | less potent than M0 | – |
| Cc1c(/C=N/N2C=Nc3c([nH]c4ccccc34)C2)c(=O)oc2c3c4c(cc12)CCCN4CCC3 [Compound M1] | confirmed the activity | – | Ki (Mcl-1 [1]): 1200 nM |
| COc1ccc(/C=C/C(=O)c2cc(OC)c(OC)c(OC)c2O)cc1 [Compound D12] | – | less potent than M0 | – |
| COc1cc(C(=O)/C=C/c2ccc([N+](=O)[O-])cc2)c(O)c(OC)c1OC [Compound D14] | – | less potent than M0 | – |
| C[C@@]12CC[C@@H]3[C@H](CCC4=CC(=O)CC[C@H]43)[C@H]1CC[C@H]2OC1(O)C(=O)c2ccccc2C1=O [Compound M5] | confirmed the activity | – | – |
| COc1ccc(C(=O)/C=C/c2cc(F)c(O)c(Cl)c2)cc1 [Compound D3] | – | potency exceeding that of M0 | activity relative to D1 (Mcl-1 [1]): reduced activity |
| c1cc2c(cc1[C@H]1OC[C@H]3[C@H]1CO[C@H]3c1ccc3c(c1)OCO3)OCO2 [Compound M7] | confirmed the activity | – | – |
